Results as given in patent US20100273189A1, “NON SEPARATION ASSAYS WITH SELECTIVE SIGNAL INHIBITORS” (BECKMAN COULTER, INC., priority 2009, published 2010).
“And” between values parts separate entries of the source, which are not always exact repeats. Equal entries are not always repeated.

Experiments:
Format in all cases: biochemical
[1] = biological target: T1, HRP (Armoracia rusticana, UniProt P00433); test: HRP model system on PMMA particles, with and without ascorbic acid; conditions: 200 μM Ascorbate; for RLU: replicates
T1 construct: purchased Roche Diagnostics, Indianapolis, Ind., USA
T1 sequence (P00433 31-338 limits assumed): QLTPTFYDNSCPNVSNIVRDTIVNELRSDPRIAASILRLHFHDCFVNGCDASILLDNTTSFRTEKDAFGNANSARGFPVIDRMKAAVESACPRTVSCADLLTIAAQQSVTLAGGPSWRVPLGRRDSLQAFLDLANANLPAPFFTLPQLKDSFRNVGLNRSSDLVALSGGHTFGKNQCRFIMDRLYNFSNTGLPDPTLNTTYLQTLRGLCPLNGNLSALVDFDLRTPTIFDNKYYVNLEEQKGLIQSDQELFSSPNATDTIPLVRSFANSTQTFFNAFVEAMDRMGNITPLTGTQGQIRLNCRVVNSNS
Description: In order to further investigate the effect of specific solid phase particles on the assays described herein, a comparison of a variety of particle types was conducted, including silica, polymethylmethacrylate (PMMA). Carboxyl modified PMMA particles (PolyAn GmbH, Berlin) were labeled with AK and biotin as described in Example 3, followed by coating with streptavidin. Silica particles were reacted with 3-aminopropylsiloxane in 1 mM acetic acid to provide an amine reactive group. The amine functional groups were reacted with AK-3 and biotin-LC-sulfoNHS, followed by coating with streptavidin.
Signal generation with Silica and PMMA particles. Assays using the HRP model system, as generally described in Example 1, were conducted on silica particles and PMMA particles, with and without ascorbic acid in the reaction mixture. The assays were run on a modified DxI instrument as described above. The assay conditions consisted of combining 45 μL BUFFER II (with or without ascorbic acid), 25 μL of particle suspension, and 15 μL of sample and incubating for 30 min. Then 100 μL of trigger solution A was added to the reaction vessel and the light intensity was recorded.

[2] = tested on: cTnI; test: Effect of ascorbic acid concentration on cTnI assay using various particles; conditions: ascorbic acid 150 μM to 9.4 μM; Dynal M-280, 6 μm CML, LodeStars; in words
Description: Effect of ascorbic acid on cTnI assay using various particles. The effect of varying the ascorbic acid concentration in the range 150 μM to 9.4 μM on chemiluminescence was investigated for assays employing Dynal M-280, 6 μm CML, and LodeStars particles.

[3] = tested on: CK-MB; test: CK-MB assay, AK-Ab1 particle + HRP-Ab2 conjugate; conditions: for RLU: replicates
Description: This example describes a method of detecting CK-MB (Creatine Kinase Myocardial Band) using an AK-Abl particle prepared as set forth in Example 3 and a HRP-Ab2 conjugate prepared as set forth in Example 4 where Ab2 represents an antibody to CK-MB. This method employed ascorbic acid to decrease background signal.
HRP-Ab2 conjugate suspensions were prepared at 1.0 μg/mL and contained either 0 or 1 mM ascorbic acid. Samples consisted of human serum samples with the indicated mounts of CK-MB added or no CK-MB as a control. The test procedure consisted of adding 15 μL of 1.0 μg/mL HRP-Ab2 conjugate and 35 μL of MES buffer containing 1 mg/mL BSA and 1 mg/mL MIgG, pH 5.9 to the reaction vessel. Next, 25 μL of patient serum sample was added, followed by 25 μL of 1.0 mg/mL AK-Abl conjugate suspension thereby obtaining 100 μL of total volume in the reaction vessel. After 15.2 minutes, 100 μL of trigger solution A was added to the reaction vessel and the light intensity was recorded on the modified DxI instrument. Chemiluminescence intensity is expressed in Relative Light Units (RLU).

[4] = With Ascorbate, S1, CK-MB 600 pg/mL
[5] = With Ascorbate, S2, CK-MB 3200 pg/mL
[6] = With Ascorbate, S3, CK-MB 9150 pg/mL
[7] = With Ascorbate, S4, CK-MB 26300 pg/mL
[8] = With Ascorbate, S5, CK-MB 94600 pg/mL
[9] = With Ascorbate, S6, CK-MB 268750 pg/mL
[10] = With Ascorbate, S7, CK-MB 1500000 pg/mL

O=C1O[C@H]([C@@H](O)CO)C(O)=C1O [Ascorbic Acid, Ascorbic acid]
Mean RLU ([1]; HRP 0 ng/ml): 20,135 RLU
S/S0 ([1]; HRP 0 ng/ml): 1.0
RLU ([1]; HRP 0 ng/ml): 20,656 RLU and 19,436 RLU and 20,312 RLU
Mean RLU ([1]; HRP 1 ng/ml): 118,472 RLU
S/S0 ([1]; HRP 1 ng/ml): 5.9
RLU ([1]; HRP 1 ng/ml): 116,596 RLU and 116,308 RLU and 122,512 RLU
Mean RLU ([1]; HRP 10 ng/ml): 2,061,780 RLU
S/S0 ([1]; HRP 10 ng/ml): 102.4
RLU ([1]; HRP 10 ng/ml): 2,066,824 RLU and 2,171,080 RLU and 1,947,436 RLU
Mean RLU ([1]; HRP 100 ng/ml): 12,093,261 RLU
S/S0 ([1]; HRP 100 ng/ml): 600.6
RLU ([1]; HRP 100 ng/ml): 12,257,256 RLU and 11,862,048 RLU and 12,160,480 RLU
Mean RLU ([1]; HRP 250 ng/ml): 12,565,744 RLU
S/S0 ([1]; HRP 250 ng/ml): 624.1
RLU ([1]; HRP 250 ng/ml): 12,575,032 RLU and 12,552,012 RLU and 12,570,188 RLU
signal/background [2]: improved analytical sensitivity by increasing signal/background
RLU ([3]; With Ascorbate (1 mM in HRP-Ab2 conjugate), Buffer, CK-MB 0 pg/mL): 1616 RLU and 1536 RLU and 1592 RLU
Mean RLU ([3]; With Ascorbate, Buffer, CK-MB 0 pg/mL): 1581 RLU
Mean RLU [3, 4]: 883 RLU
RLU [3, 4]: 948 RLU and 852 RLU and 848 RLU
Mean RLU [3, 5]: 4051 RLU
S/S1 [3, 5]: 4.59
RLU [3, 5]: 4080 RLU and 3928 RLU and 4144 RLU
Mean RLU [3, 6]: 13295 RLU
S/S1 [3, 6]: 15.06
RLU [3, 6]: 12756 RLU and 13108 RLU and 14020 RLU
Mean RLU [3, 7]: 40407 RLU
S/S1 [3, 7]: 45.78
RLU [3, 7]: 41384 RLU and 39448 RLU and 40388 RLU
Mean RLU [3, 8]: 232489 RLU
S/S1 [3, 8]: 263.39
RLU [3, 8]: 222832 RLU and 249468 RLU and 225168 RLU
Mean RLU [3, 9]: 1195177 RLU
S/S1 [3, 9]: 1354.05
RLU [3, 9]: 1187736 RLU and 1121256 RLU and 1276540 RLU
Mean RLU [3, 10]: 3324829 RLU
S/S1 [3, 10]: 3766.80
RLU [3, 10]: 3266772 RLU and 3290024 RLU and 3417692 RLU
